Laboratory results taken from patent US12642808B2, “Methods of inhibiting Klebsiella pneumoniae carbapenemase-2” (priority 2023, dated 2026).
Read-outs that look alike come from different tables or passages of the source.

Legend:
KPC-2 enzyme = KPC-2 enzyme (Klebsiella pneumoniae, UniProt Q9F663); assay: Enzyme activity determination (nitrocefin hydrolysis); format: biochemical
Experimental: Enzyme activity was measured using a Shimadzu UV-1900i spectrophotometer in 50 mM phosphate buffer (pH 7.0) to measure the inhibitory effect. The total enzyme activity reaction system is 500 μL. The reaction temperature was set to 37° C., and 0.3 nM KPC-2 enzyme was pre-incubated with different concentrations of AN2718 in phosphate buffer (pH 7.0) for 5 minutes before adding 60 μL nitrocefin. Measure the hydrolysis inhibition effect of AN2718 on nitrocefin by detect change of absorbance. The 50% inhibition concentration is determined by the inhibition curve of the control activity percentage and inhibitor concentration. Repeat the experiment three times.

KPC-74T [1] = assay: Time sterilization (time-killing) curve; format: cell-based, Escherichia coli
Excerpt: (§1) KPC-74T, carrying Escherichia coli containing KPC-2 plasmid, constructed by the laboratory; Hvkp, obtained through laboratory isolation; AN2718 purchased from Target Mol Technology Co., Ltd; BBLTM Mueller Hinton II Broth was purchased from BD Company in the United States; Meropenem was purchased from Meilun Biotechnology Co., Ltd; LB Broth was purchased from Qingdao High tech Industrial Park Haibo Biotechnology Co., Ltd; Enzyme marker (UV1900i, Shimadzu company);
Inoculate overnight cultured bacterial KPC-74T in a 1:10000 ratio onto MHB medium and incubate at 225 rpm at 37° C. for 2 hours (early exponential growth phase) or 5 hours (late exponential growth phase). After incubation, add the corresponding concentration of AN2718 or Meropenem solution and incubate it at 37° C. and 225 rpm. Set the time point to 0, 1, 3, 5, 7, and 24 hours. At each time point, absorb 100 μL bacterial solution, centrifuged at 10000 g rotating speed for 1 min, resuspended with PBS, diluted in ten fold gradient, and absorbed 10 μL of each gradient drops onto MHA plate. Place the plates in a 37° C. incubator for 24 hours and remove them. Count each plate and calculate the total bacterial count. Repeat the experiment three times.

Hvkp2 strain = assay: Treatment of mice infected with Hvkp2 strain; format: in vivo, ICR mice; settings: monotherapy 16 mg/kg; for survival rate: after 24 hours of Hvkp2 infection, mice
Experimental: The experiment was conducted on mice infected with Hvkp2 strain for treatment. A total of 35 male ICR mice of SPF grade at four weeks old were selected and divided into seven groups. The […] were set as the saline control group, AN2718 monotherapy group (16 mg/kg), Meropenem monotherapy group (16 mg/kg), AN2718/Meropenem combination group 1 (8 mg/kg+8 mg/kg), AN2718/Meropenem combination group 2 (8 mg/kg+16 mg/kg), AN2718/Meropenem combination group 3 (16 mg/kg+8 mg/kg) and AN2718/Meropenem combination group 4 ([…]), respectively. First, incubate Hvkp2 overnight at 37° C., activate it, and resuspend it with physiological saline. Adjust the bacterial concentration to approximately 1×10^6 CFU/mL, spare. […]. Inject saline or medication 1 hours after infection. After 12 hours, the second dose of medication was administered for treatment, with a total of five injections and a time interval of 12 hours between each injection. Observe and count the survival status of each group of mice during the experiment.
This experiment used SPSS 20.0 software to statistically process and analyze the data represented by (X±SD). Multiple comparisons and one-way ANOVA were used to analyze and compare the data of each group. (P<0.05 indicates a significant difference, and P<0.01 indicates a highly significant difference).

KPC-93 = KPC-93 (Klebsiella pneumoniae, UniProt Q9F663); assay: Enzyme activity determination (nitrocefin hydrolysis); format: biochemical; settings: read-out: semi-inhibitory concentration IC50 for KPC-93
KPC-41 = KPC-41 (Klebsiella pneumoniae, UniProt Q9F663); assay: as above; format: biochemical; settings: read-out: semi-inhibitory concentration IC50 on KPC-41
KPC-74T [2] = assay: Chessboard minimum inhibitory concentration determination; format: cell-based, Escherichia coli; settings: for MIC: Escherichia coli; for MIC value decreased: combined use of the two drugs versus alone
Excerpt: as §1
This study referenced the standards of the Clinical and Laboratory Standards Institute (CLSI) in the United States and the laboratory's previous improvement methods and measured partial inhibitory concentrations through a chessboard test. Firstly, KPC-74T was activated, inoculated on Lysogeny broth, and cultured overnight at 37° C. Add 100 μL MHB medium to each well in a sterile 96 well plate; Then add AN2718 solution 100 μL to the first line and perform gradient dilution along the vertical axis. Then, add Meropenem solution to the first column and dilute it in a gradient along the abscissa. Finally, in addition to the negative control, add 100 μL of bacterial suspension ≈1×10^6 CFUs mL^−1. After completing the above operations, place the 96 well plate in a 37° C. constant temperature incubator and incubate for 18 hours. Observe the bacterial solution of each well under appropriate light, and observe the drug concentration corresponding to the complete absence of bacterial growth wells, which is MIC. Determine synergistic effects by calculating FIC. FIC can be calculated according to formula (1): […]
MICa is a separate MIC of compound a; MICab is the MIC of compound a combined with compound b; MICb is a separate MIC of compound b; MICba is the MIC of compound b combined with compound a; FICa is the FIC of compound a; FICb is the FIC of compound b. According to the standard definition, FICI≤0.5 is defined as synergy; 0.5<FICI≤1 is defined as an additive; […] is defined as no difference; FICI>4 is defined as an antagonistic effect.

Sequence of KPC-93 (Q9F663 25-293 limits assumed): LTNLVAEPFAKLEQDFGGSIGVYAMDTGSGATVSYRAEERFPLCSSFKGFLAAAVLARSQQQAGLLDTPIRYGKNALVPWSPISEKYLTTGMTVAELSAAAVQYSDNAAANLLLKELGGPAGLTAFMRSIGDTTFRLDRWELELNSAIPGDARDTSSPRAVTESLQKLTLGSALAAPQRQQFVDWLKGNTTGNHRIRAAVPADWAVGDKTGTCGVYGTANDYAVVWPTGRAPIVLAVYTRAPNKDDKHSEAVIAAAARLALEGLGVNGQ
Sequence of KPC-2 enzyme (Q9F663 25-293 limits assumed): as above
Sequence of KPC-41 (Q9F663 1-268, added parts left off, change not shown, form open): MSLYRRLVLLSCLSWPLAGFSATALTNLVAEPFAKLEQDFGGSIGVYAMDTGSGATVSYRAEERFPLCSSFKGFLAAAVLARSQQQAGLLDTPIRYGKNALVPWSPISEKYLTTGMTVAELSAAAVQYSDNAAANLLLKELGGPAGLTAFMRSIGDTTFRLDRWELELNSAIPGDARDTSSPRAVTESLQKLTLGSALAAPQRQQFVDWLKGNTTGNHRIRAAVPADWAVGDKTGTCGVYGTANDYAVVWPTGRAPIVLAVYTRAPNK

## OB1OCc2cc(Cl)ccc21 [AN2718, 5-chloro-1,3-dihydro-1-hydroxy-2,1-benzoxaborole]
KPC-2 enzyme
  IC50: 499 nM
KPC-74T [1]; AN2718 single use, up to 160 μM (26.88 μg/mL), within 24 hours
  effect on the growth of KPC-74T: has no effect on the growth of KPC-74T
Hvkp2 strain
  survival rate: 40%
Hvkp2 strain; between 36h and 132h, mice infected with Hvkp2
  survival rate versus Meropenem group: significantly higher
KPC-93
  IC50: 116 nM
KPC-41
  IC50: 370000 nM
KPC-74T [2]; 18 h, read-out: AN2718 S-MIC
  MIC: 13.4 µg/mL
KPC-74T [2]; KPC-74T
  MIC value decreased: four

## C[C@@H](O)[C@H]1C(=O)N2C(C(=O)O)=C(S[C@@H]3CN[C@H](C(=O)N(C)C)C3)[C@H](C)[C@H]12 [Meropenem]
KPC-74T [1]; Meropenem 4 μg/mL and 8 μg/mL with AN2718 40 μM
  killing of bacteria within 24 h: could not kill all bacteria
KPC-74T [1]; Meropenem 4 μg/mL with AN2718 80 μM
  killing of bacteria within 24 h: can kill most of the bacteria
KPC-74T [1]; Meropenem 4 μg/mL with AN2718 160 μM
  killing of bacteria within 24 h: can kill all bacteria
KPC-74T [1]; Meropenem 128 μg/mL with AN2718 20 μM
  killing of bacteria within 24 h: all bacteria can be killed
KPC-74T [1]; Meropenem alone 2 μg/mL˜64 μg/mL, at 24 hours
  number of colonies versus control group: no significant difference
KPC-74T [1]; Meropenem alone 2 μg/mL˜64 μg/mL, first 5 hours
  effect on the growth of KPC-74T: a certain inhibitory effect
KPC-74T [1]; Meropenem alone 128 μg/mL
  effect on the growth of KPC-74T: significant inhibitory effect
  killing of bacteria within 24 h: still cannot kill all bacteria
KPC-74T [1]; Meropenem remaining concentrations (above 4 μg/mL) with AN2718 80 μM
  killing of bacteria within 24 h: can still kill all the bacteria
KPC-74T [1]; Meropenem rest concentrations (above 8 μg/mL) with AN2718 40 μM
  killing of bacteria within 24 h: could still effectively kill bacteria
Hvkp2 strain
  survival rate: 20%
KPC-74T [2]; AN2718 in combination with Meropenem, KPC-74T
  FICI: 0.25
KPC-74T [2]; AN2718 in combination with Meropenem, KPC-74T, from FICI
  Result: synergy (FICI≤0.5 is defined as synergy)
KPC-74T [2]; read-out: Drug S-MIC
  MIC: 64 µg/mL
KPC-74T [2]; KPC-74T
  MIC value decreased: 1024 times
